Measured values from patent publication US20220339134A1, “VERY-LONG-CHAIN POLYUNSATURATED FATTY ACIDS, ELOVANOID HYDROXYLATED DERIVATIVES, AND METHODS OF USE” (Board of Supervisors of Louisiana State University and …, priority 2019, published 2022).

How the values were obtained:
[1] = system: primary human RPE cells; test: Primary human RPE cells treated with 10 μM OAβ +/- ELVs (SA-β-Gal staining, qPCR); format: cell-based; settings: 3 days qPCR, 7 days staining
Protocol: (A) In vitro experimental design: Primary human RPE cells were treated with 10 μM OAβ+/−ELVs. After 3 days, RNA was isolated and qPCR analyzed. After 7 days, cells were subjected to β-Galactosidase staining. (B) Live cell images under bright field microscopy after 7 days. (C) β-Gal staining+/−ELVs. Quantitation of % for the β-Gal positive cells. ELVs decreased positive senescent cells. (D) Gene transcription of senescence, AMD-related and autophagy genes after OAβ (1-42) exposure+/−ELVs. (*P <0.05, student t-test).
OAβ toxicity is counteracted by ELVs in primary hRPE. (A) Primary hRPE cells were treated with 10 μM OAβ with or without adding ELVs. After 3 days, the total RNA was isolated and q-PCR analyzed. After 7 days, cells were subjected to β-Galactosidase staining. (B) Live cell images of primary hRPE under bright field microscope imaging after 7 days. (C) β-Galactosidase staining of primary hRPE, +/−ELVs. Quantitation of % for the β-Gal positive cells. ELVs decreased positive senescent cells. […]
Cells were visualized using SA-β-Gal staining kit (Cat 9860, Cell Signaling Technology, MA, USA). […] Pictures were taken under brightfield microscope (Nikon Eclipse TS100) 200× magnification after the development of blue color, and cells counted in 10 different random fields per well. […]

[2] = system: hypothalamus, SAT and VAT; test: Adiponectin levels in diabetic hypothalamus and adipose tissue; set-up: species or system db/db mice
[3] = system: db/db mice hypothalamus; test: IL6 (marker of SASP) induced by IL1β in diabetic mouse hypothalamus; format: cell-based
Excerpt: Different effects have been observed in female and male mice.

[4] = methyl ester or sodium salt; administered 1 hour following 2 hours of ischemia; cited from earlier work
[5] = system: human diabetic and non-diabetic adipocytes; test: TP53 and IL8 expression (Taqman Real time PCR) in human adipocytes treated with IL1β; format: cell-based
Protocol: A) experimental design. B) expression levels of TP53 and IL8 in human diabetic and non-diabetic adipocytes by the means of Taqman Real time PCR.
IL1β is a cytokine that induce insulin resistance in adipocytes 18 • Similarly, IL8 was elevated by IL1β and brought down around 40 folds by 500 nM ELV34 in both diabetic and non-diabetic adipocytes. Even though the mechanisms are unknown ELV34 can be a therapeutic agent to stop or halt damaging signaling observed in diabetic patients.

Structure (SMILES): CC/C=C\C[C@H](O)\C=C/C=C/C=C/[C@H](O)C/C=C\C/C=C\CCCCCCCCCCCCCCC(=O)O [ELV-N-34]
- OAβ effects: RPE cell morphology, SASP (SA-β-Gal), senescence, AMD, MMP and autophagy gene expression [1]: reverted these effects
- adiponectin in subcutaneous (SAT) and visceral adipose tissue (VAT) [2]: Differential effect
- levels of Adiponectin ([2]; ELV34 treatment): increased
- adiponectin in diabetic hypothalamus ([2]; female and males): trend of increase
- levels of IL6 (marker of SASP) [3]: reduced
- cell survival [4]: promoted cell survival
- infarct volumes [4]: reduced infarct volumes
- neurovascular unit disruption [4]: diminished neurovascular unit disruption
- IL8 brought down ([5]; 500 nM, IL1β-elevated, diabetic and non-diabetic adipocytes): around 40 folds
- levels of TP53 mRNA ([5]; adipocytes from diabetic patient treated with IL1β): down to non-diabetic control levels
- effect of IL1β (TP53 and IL8 expression) ([5]; human diabetic adipocytes): revert the effect of IL1β
